Reference: article PMC10848157, “Assessing NH300094, a novel dopamine and serotonin receptor modulator with cognitive enhancement property for treating schizophrenia” (Frontiers in Pharmacology, 2024)

Experiments:
Alpha1A receptor = biological target: T1, Alpha1A receptor (Homo sapiens, UniProt P35348); assay: Alpha1A receptor functional assay (calcium flow, FLIPR); format: cell-based; conditions: HEK293/Alpha1A cells, read-out: Alpha1AR, IC50
T1 construct: expressed in transfected cells; host or cells: HEK293/Alpha1A (constructed by Shanghai shujing Biopharma)
T1 sequence (P35348 1-466): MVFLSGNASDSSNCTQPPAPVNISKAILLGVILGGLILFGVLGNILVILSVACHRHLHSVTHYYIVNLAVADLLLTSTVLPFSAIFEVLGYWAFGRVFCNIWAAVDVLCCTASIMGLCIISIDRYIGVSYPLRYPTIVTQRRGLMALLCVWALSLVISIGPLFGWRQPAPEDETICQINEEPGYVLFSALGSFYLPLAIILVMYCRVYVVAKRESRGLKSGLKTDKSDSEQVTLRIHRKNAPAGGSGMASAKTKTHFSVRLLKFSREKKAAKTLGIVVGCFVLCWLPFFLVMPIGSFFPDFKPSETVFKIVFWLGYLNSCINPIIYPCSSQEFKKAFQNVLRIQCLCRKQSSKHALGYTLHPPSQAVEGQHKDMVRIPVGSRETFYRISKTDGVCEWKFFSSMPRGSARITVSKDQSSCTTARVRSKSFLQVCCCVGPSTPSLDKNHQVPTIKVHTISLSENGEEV

5-HT1B receptor = 5-HT1B receptor (Homo sapiens, UniProt P28222); assay: 5-HT1B receptor functional assay (cAMP assay, inverse agonist); format: cell-based; conditions: inverse agonist activity, CHO-K1/5-HT1B cells, read-out: 5HT1BR, EC50
Sequence of 5-HT1B receptor (P28222 whole entry): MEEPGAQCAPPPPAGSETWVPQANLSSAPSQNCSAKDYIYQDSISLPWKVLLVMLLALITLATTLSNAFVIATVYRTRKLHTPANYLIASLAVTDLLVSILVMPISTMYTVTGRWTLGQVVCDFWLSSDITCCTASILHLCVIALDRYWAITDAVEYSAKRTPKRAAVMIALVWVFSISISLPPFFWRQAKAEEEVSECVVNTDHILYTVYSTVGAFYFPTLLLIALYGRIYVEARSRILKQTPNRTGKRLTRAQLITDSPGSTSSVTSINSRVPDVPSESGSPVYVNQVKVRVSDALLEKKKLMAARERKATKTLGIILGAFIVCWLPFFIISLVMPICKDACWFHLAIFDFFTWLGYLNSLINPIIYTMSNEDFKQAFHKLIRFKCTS

M1 receptor = biological target: T2, M1 receptor (Homo sapiens, UniProt P11229); assay: M1 receptor functional assay (calcium flow, FLIPR); format: cell-based; conditions: CHO-K1/M1 cells, read-out: M1R, IC50
T2 sequence (P11229 1-460): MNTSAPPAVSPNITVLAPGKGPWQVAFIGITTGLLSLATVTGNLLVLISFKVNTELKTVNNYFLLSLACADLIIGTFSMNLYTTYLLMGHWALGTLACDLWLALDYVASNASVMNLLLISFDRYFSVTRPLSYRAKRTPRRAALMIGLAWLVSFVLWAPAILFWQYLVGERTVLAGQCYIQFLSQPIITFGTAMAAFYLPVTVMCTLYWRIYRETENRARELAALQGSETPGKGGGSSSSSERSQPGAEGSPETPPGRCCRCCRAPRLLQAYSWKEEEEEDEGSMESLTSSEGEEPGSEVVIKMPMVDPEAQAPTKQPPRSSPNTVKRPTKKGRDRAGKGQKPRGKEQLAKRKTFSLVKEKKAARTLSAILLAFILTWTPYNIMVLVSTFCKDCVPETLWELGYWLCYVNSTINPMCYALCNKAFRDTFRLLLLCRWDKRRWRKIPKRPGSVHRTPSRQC

D2S receptor = D2S receptor (Homo sapiens, UniProt P14416); assay: D2S receptor functional assay (cAMP assay, antagonist); format: cell-based; conditions: antagonist activity, CHO-K1/D2 cells, read-out: D2SR, IC50
Sequence of D2S receptor (P14416 1-414 isoform P14416-2): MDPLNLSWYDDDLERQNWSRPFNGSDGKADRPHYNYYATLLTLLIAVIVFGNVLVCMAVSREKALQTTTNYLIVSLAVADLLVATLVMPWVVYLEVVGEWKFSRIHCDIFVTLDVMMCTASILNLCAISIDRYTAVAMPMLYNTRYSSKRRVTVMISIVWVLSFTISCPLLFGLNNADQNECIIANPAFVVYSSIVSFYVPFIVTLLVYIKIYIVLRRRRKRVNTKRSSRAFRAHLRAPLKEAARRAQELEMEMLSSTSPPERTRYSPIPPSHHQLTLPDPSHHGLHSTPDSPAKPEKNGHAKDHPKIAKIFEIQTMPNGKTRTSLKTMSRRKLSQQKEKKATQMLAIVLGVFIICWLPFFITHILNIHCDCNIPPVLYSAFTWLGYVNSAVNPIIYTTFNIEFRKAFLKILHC

5-HT2C receptor = biological target: T3, 5-HT2C receptor (Homo sapiens, UniProt P28335); assay: 5-HT2C receptor functional assay (calcium flow, FLIPR); format: cell-based; conditions: HEK293/5-HT2C cells, read-out: 5HT2cR, IC50
T3 sequence (P28335 33-458): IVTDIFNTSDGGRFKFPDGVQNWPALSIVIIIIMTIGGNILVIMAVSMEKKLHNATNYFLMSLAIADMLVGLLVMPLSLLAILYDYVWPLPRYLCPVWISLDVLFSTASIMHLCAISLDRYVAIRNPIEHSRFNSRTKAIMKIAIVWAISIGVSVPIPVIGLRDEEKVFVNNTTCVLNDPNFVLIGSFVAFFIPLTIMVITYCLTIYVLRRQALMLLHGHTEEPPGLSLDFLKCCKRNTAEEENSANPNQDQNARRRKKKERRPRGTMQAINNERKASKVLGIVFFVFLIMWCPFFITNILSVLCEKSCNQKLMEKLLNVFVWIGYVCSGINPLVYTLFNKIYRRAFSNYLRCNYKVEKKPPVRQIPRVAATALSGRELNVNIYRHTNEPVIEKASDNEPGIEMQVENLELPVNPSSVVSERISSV

in vivo = conditions: male, ICR, mouse, po
Alpha2A receptor = biological target: T4, Alpha2A receptor (Homo sapiens, UniProt P08913); assay: Alpha2A receptor functional assay (cAMP assay); format: cell-based; conditions: HEK293/Alpha2A cells, read-out: Alpha2AR, IC50
T4 construct: expressed in transfected cells; host or cells: HEK293/Alpha2A (constructed by Shanghai shujing Biopharma)
T4 sequence (P08913 1-465): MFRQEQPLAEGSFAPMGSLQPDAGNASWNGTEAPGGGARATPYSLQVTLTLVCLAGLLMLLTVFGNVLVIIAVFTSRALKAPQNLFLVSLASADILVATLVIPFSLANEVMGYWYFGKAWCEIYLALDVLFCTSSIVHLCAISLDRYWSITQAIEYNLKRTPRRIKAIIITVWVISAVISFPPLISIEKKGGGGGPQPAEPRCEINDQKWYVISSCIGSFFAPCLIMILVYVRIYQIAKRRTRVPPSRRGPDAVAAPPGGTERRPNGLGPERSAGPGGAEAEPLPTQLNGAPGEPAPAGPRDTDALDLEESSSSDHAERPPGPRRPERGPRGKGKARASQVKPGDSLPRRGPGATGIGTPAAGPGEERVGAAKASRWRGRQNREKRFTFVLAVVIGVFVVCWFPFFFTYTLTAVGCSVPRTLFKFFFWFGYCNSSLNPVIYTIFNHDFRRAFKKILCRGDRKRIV

H1 receptor = biological target: T5, H1 receptor (Homo sapiens, UniProt P35367); assay: H1 receptor functional assay (calcium flow, FLIPR); format: cell-based; conditions: HEK293/H1 cells, read-out: H1R, IC50
T5 construct: host or cells: HEK293/H1
T5 sequence (P35367 whole entry): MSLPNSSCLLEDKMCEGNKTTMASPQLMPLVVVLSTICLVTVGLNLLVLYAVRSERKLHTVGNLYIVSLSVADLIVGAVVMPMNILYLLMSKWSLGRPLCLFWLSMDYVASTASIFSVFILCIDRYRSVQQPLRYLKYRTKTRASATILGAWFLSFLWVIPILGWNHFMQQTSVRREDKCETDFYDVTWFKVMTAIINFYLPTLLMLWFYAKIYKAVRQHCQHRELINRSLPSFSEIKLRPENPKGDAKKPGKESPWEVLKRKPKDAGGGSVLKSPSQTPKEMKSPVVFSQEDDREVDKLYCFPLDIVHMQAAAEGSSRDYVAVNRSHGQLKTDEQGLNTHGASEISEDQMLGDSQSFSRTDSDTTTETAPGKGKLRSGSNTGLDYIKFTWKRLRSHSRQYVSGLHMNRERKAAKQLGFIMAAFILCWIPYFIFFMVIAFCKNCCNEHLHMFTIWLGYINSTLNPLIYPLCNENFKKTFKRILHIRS

D2L receptor = D2L receptor (Homo sapiens, UniProt P14416); assay: D2L receptor functional assay (cAMP assay, antagonist); format: cell-based; conditions: antagonist activity, CHO-K1/D2 cells, read-out: D2LR, IC50
Sequence of D2L receptor (P14416 whole entry): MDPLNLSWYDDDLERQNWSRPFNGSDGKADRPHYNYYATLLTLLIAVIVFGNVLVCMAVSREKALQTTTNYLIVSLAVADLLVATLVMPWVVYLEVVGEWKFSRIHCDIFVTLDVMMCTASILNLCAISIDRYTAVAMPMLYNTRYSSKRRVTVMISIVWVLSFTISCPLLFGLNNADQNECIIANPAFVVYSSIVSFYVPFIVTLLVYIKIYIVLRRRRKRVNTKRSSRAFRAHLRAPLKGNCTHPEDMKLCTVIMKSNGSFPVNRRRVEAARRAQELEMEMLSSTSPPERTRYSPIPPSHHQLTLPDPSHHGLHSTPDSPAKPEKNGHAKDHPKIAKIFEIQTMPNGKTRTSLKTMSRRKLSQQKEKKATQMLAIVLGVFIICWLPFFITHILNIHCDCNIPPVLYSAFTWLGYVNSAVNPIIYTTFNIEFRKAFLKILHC

male Wistar rats = assay: Conditioned avoidance response test in rats; format: in vivo; conditions: Rattus norvegicus, single oral dose, read-out: ED50, inhibition of conditioned avoidance response
Source text: Shuttle-box Avoidance Test Video Analysis System (DigBehv-SBG, Shanghai Jiliang Software Technology Co. Ltd.) were used to assess the rats conditioned avoidance response.
Phase I: The rats responded to the conditioned stimulus (auditory and visual) by training with foot shock reinforcement. Briefly, rats were placed into the CAR shuttle boxes for a 5-min habituation followed by 30 trials presented on a 20-s variable interval (20–30 s) stimulus. Each rats were subjected to a conditioned stimulus which consisted of 10s presentation of light and white noise, and then followed by a scrambled 1.5 mA foot shock for 10 s. […] Rats with avoidance rates greater than 70% for 3 consecutive days were included in this study post-training.
Phase II: The qualified rats were randomly divided into 7 groups. […] The procedure in the testing phase was the same as the Phase I described. The number of avoidances, escapes, and escape failures were recorded.

Compound O=C1CCc2cc(OCCCN3CCC(c4noc5cc(F)ccc45)CC3)cc3c2N1CC3 [NH300094, 8-(3-(4-(6-fluorobenzo [d]isoxazol-3-yl)piperidin-1-yl)propoxy)-1,2,5,6-tetrahydro-4H-pyrrolo [3,2,1-ij] quinolin-4-one] has an IC50 (Alpha1A receptor) of 28.5 nM, an EC50 (5-HT1B receptor) of 28.4 ± 12.5 nM and an IC50 (M1 receptor) of 3520 nM. For the same compound, the IC50 (D2S receptor) was 11.7 ± 9.38 nM, the IC50 (5-HT2C receptor) was 3020 nM and the ED50 (in vivo) was 6.73 mg/kg. For the same compound, the IC50 (Alpha2A receptor) was 314 nM, the IC50 (H1 receptor) was 126 nM and the IC50 (D2L receptor) was 1.04 ± 0.59 nM. It also gave an ED50 (male Wistar rats) of roughly 1.02 mg/kg.
